According to ChEMBL document CHEMBL1255270, “Relationship between antibiotic use and incidence of MexXY-OprM overproducers among clinical isolates of Pseudomonas aeruginosa” (2008):
Values after ≈ are worked out from the molar mass of the structure shown.

Tests used:
Type in all cases: functional
[1] = system: Pseudomonas aeruginosa; test: Antimicrobial activity against MexXY-OprM-overproducing Pseudomonas aeruginosa PAO1 harboring MexY and MexZ mutant gene selected after 4 ug/ml of cefepime exposure
[2] = system: Pseudomonas aeruginosa; test: Antimicrobial activity against MexXY-OprM-overproducing Pseudomonas aeruginosa PAO1 harboring MexY agrZ mutant and MexZ mutant gene selected after 4ug/ml of gentamycin exposure
[3] = system: Pseudomonas aeruginosa; test: Antimicrobial activity against MexXY-OprM-overproducing Pseudomonas aeruginosa PAO1 harboring MexY and MexZ mutant gene selected after 0.25 ug/ml of ciprofloxacin exposure
[4] = system: Pseudomonas aeruginosa; test: Antimicrobial activity against MexXY-OprM-overproducing Pseudomonas aeruginosa PAO1 harboring MexY agrW mutant and MexZ mutant gene selected after 8 ug/ml of amikacin exposure
[5] = system: Pseudomonas aeruginosa; test: Antimicrobial activity against MexXY-OprM-overproducing Pseudomonas aeruginosa PAO1 harboring MexY agrW mutant and MexZ mutant gene selected after 4 ug/ml of cefepime exposure
[6] = system: Pseudomonas aeruginosa; test: Antimicrobial activity against mexXY-OprM-overproducing Pseudomonas aeruginosa PAO1
[7] = system: Pseudomonas aeruginosa; test: Antimicrobial activity against mexXY-OprM-overproducing Pseudomonas aeruginosa clinical isolate
[8] = system: Pseudomonas aeruginosa; test: Antimicrobial activity against mexXY-OprM-overproducing Pseudomonas aeruginosa isolate PA/XY assessed as zone of inhibition by disk diffusion method
[9] = system: Pseudomonas aeruginosa; test: Antimicrobial activity against MexXY-OprM-overproducing Pseudomonas aeruginosa PAO1 harboring MexY and MexZ mutant gene selected after 8 ug/ml of amikacin exposure
[10] = system: Pseudomonas aeruginosa; test: Antimicrobial activity against MexXY-OprM-overproducing Pseudomonas aeruginosa PAO1 harboring MexY agrW mutant and MexZ mutant gene selected after 0.25 ug/ml of ciprofloxacin exposure
[11] = system: Pseudomonas aeruginosa; test: Antimicrobial activity against MexXY-OprM-overproducing Pseudomonas aeruginosa PAO1 harboring MexY agrW mutant and MexZ mutant gene selected after 1 ug/ml of oflaxacin exposure
[12] = system: Pseudomonas aeruginosa; test: Antimicrobial activity against MexXY-OprM-overproducing Pseudomonas aeruginosa PAO1 harboring MexY agrZ mutant and MexZ mutant gene selected after 1 ug/ml of Norfloxacin exposure
[13] = system: Pseudomonas aeruginosa; test: Antimicrobial activity against MexXY-OprM-overproducing Pseudomonas aeruginosa PAO1 harboring MexY agrZ mutant and MexZ mutant gene selected after 1 ug/ml of tobramycin exposure

Row | Compound | MIC [1] [mg/L] | MIC [2] [mg/L] | MIC [3] [mg/L] | MIC [4] [mg/L] | MIC [5] [mg/L] | MIC [6] [mg/L] | MIC [7] [mg/L] | inhibition zone (IZ) [8] [mm] | MIC [9] [mg/L] | MIC [10] [mg/L] | MIC [11] [mg/L] | MIC [12] [mg/L] | MIC [13] [mg/L]
1 | GENTAMICIN | 8 | 8 | 8 | 8 | 8 | 4 | 2 | < 20 | 8 | 8 | 8 | 8 | 8
2 | NCC[C@H](O)C(=O)N[C@@H]1C[C@H](N)[C@@H](O[C@H]2O[C@H](CN)[C@@H](O)[C@H](O)[C@H]2O)[C@H](O)[C@H]1O[C@H]1O[C@H](CO)[C@@H](O)[C@H](N)[C@H]1O [AMIKACIN] | 8 | 8 | 8 | 8 | 8 | 4 (≈ 6.83 µM) | 4 (≈ 6.83 µM) | <20 | 8 | 8 | 8 | 8 | 8
3 | CO/N=C(\C(=O)N[C@@H]1C(=O)N2C(C(=O)[O-])=C(C[N+]3(C)CCCC3)CS[C@H]12)c1csc(N)n1 | 4 | 4 | 4 | 4 | 4 | 2 (≈ 4.16 µM) | – | – | 4 | 4 | 4 | 4 | 4
4 | NC[C@H]1O[C@H](O[C@H]2[C@H](O)[C@@H](O[C@H]3O[C@H](CO)[C@@H](O)[C@H](N)[C@H]3O)[C@H](N)C[C@@H]2N)[C@H](N)C[C@@H]1O [TOBRAMYCIN] | 2 | 2 | 2 | 2 | 2 | 1 (≈ 2.14 µM) | 1 (≈ 2.14 µM) | <20 | 2 | 2 | 2 | 2 | 2
5 | O=C(O)c1cn(C2CC2)c2cc(N3CCNCC3)c(F)cc2c1=O [CIPROFLOXACIN] | – | – | – | – | – | 0.12 (≈ 0.362 µM) | – | – | – | – | – | – | –
